{"source": "paper PMC5690597", "about": "“Suppression and resolution of autoimmune arthritis by rhesus θ-defensin-1, an immunomodulatory macrocyclic peptide” (PLoS ONE, 2017)", "system": "DA/OlaHsd rats with pristane-induced arthritis", "assay": "Pristane-induced arthritis (PIA), established disease (AS ≥ 3)", "assay_type": "in vivo, rat", "protocol": "Female DA/OlaHsd (D blood group allele and Agouti, also known as Dark Agouti), rats were obtained from Harlan Laboratories (Indianapolis, IN). Animals were allowed to acclimate for 48–72 hours prior to experimental use. Animals were fed standard chow ad lib during a 12-hour day/night cycle. PIA was induced in 5–7 week old animals (90–100 gm) by intradermal injection of 250 μl pristane (Sigma) divided into 3–5 sites at the base of the tail. Animals were monitored daily and disease severity of each limb was scored 0–4 using the method of Brand et al.. The severity scores for all limbs of individual animals were totaled to give an individual’s arthritis severity score (AS) ranging from zero for normal animals to maximum disease score of sixteen. […] In three separate trials, treatment was also blinded to scorers. […] Treatment with saline (vehicle), RTD-1, or anti-arthritic agents was randomized and initiated when an animal first presented with an AS of 3 or more. RTD-1 was administered subcutaneously with doses ranging from 0.2 to 5.0 mg/kg in an injection volume of 0.5 ml at intervals ranging from once a day (qd) to once every seven days (q7d). MTX was administered at 0.25 mg/kg by intraperitoneal injection q3d. Etanercept was administered at 0.4 mg/kg by subcutaneous injection q3d.", "note": "Bridge positions count the residues as written; N and C are the ends. Peptide text beside a SMILES is read from it."}
{"smiles": "CC[C@H](C)[C@@H]1NC(=O)[C@@H]2CSSC[C@H](NC(=O)[C@H](CCCNC(=N)N)NC(=O)[C@@H]3CSSC[C@H](NC1=O)C(=O)N[C@@H]([C@@H](C)O)C(=O)N[C@@H](CCCNC(=N)N)C(=O)NCC(=O)N[C@@H](Cc1ccccc1)C(=O)N3)C(=O)N[C@@H](CC(C)C)C(=O)N[C@H]1CSSC[C@H](NC(=O)[C@H](C(C)C)NC(=O)CNC(=O)[C@H](CCCNC(=N)N)NC(=O)[C@H](CCCNC(=N)N)NC1=O)C(=O)N[C@@H](CCCNC(=N)N)C(=O)N2", "note": "[RTD-1, rhesus θ-defensin 1] (cyclo(GFCRCLCRRGVCRCICTR); disulfide 3-16, 5-14, 7-12)", "values": [{"measurement": "complete resolution of disease (AS = 0), share of animals", "setting": "5 mg/kg s.c. daily for 11 days, 9 of 31 animals, saline 2.5% (1 of 40)", "value": 29, "unit": "%"}, {"measurement": "reduction of mean arthritis severity score (AS) at the end of the observation period compared with vehicle controls", "setting": "5 mg/kg s.c. daily for 11 days, DA rats with PIA, AS ≥ 3 at start, 6 independent experiments", "value": 69, "unit": "%"}, {"measurement": "disease resolution by dosing interval", "setting": "5 mg/kg s.c. daily, or once every 2, 3, or 5 days, n = 5 per group, single experiment", "value": "equivalent disease resolution"}, {"measurement": "rate of complete disease resolution on day 11, comparison with RA drugs", "setting": "RTD-1 s.c. (4 of 16), MTX 0.25 mg/kg i.p. q3d (1 of 22), etanercept 0.4 mg/kg s.c. q3d (0 of 21), saline 0 of 19, 2 independent experiments", "value": 25, "unit": "%"}, {"measurement": "therapeutic effect on AS compared to vehicle control", "setting": "daily s.c. 0.2 mg/kg", "value": "no therapeutic effect"}, {"measurement": "reduction in AS compared to vehicle control", "setting": "daily s.c. 1 mg/kg", "value": "modest, but not statistically significant reductions in AS"}, {"measurement": "reduction in AS compared to vehicle control by treatment day 3", "setting": "daily s.c. 3 or 5 mg/kg, 2 independent experiments", "value": "significant (P ≤ 0.0015) and similar reductions in AS"}]}
